In US11628181B2, “N4-hydroxycytidine and derivatives and anti-viral uses related thereto” (Emory University, priority 2014, dated 2023):
Read-outs that look alike come from different tables or passages of the source.

Key:
[1] = Rodent pharmacokinetic experiment in mice; format: in vivo, DBA-1J mice; settings: for concentration at 24 hr: read-out: 24 hr plasma levels
Description: DBA-1J mice (6-8 weeks old, female) were acclimated for ≥2 days after receipt. Mice were weighed the day before dosing to calculate dosing volumes. Mice were dosed by oral gavage with drug at 30 mg/kg, 100 mg/kg & 300 mg/kg. The mice were sampled at […] time points: 0.5, 1, 2, 3, 4, 8 and 24 hrs (3 mice per time point for test drug). The mice were euthanized and their organs were collected (see below). In order to collected blood, mice with euthanized by CO2 at the appropriate time point listed above. Blood was obtained by cardiac puncture (0.3 ml) at each time point. Following blood collection, the organs were removed from the mice (see below). The blood was processed by inverting Li-Heparin tube with blood gently 2 or 3 times to mix well. The tubes were then placed in a rack in ice water until able to centrifuge (≤1 hour). As soon as practical, the blood was centrifuged at ˜2000×g for 10 min in a refrigerated centrifuge to obtain plasma. Then, using a 200 μL pipette, the plasma was transferred to a labeled 1.5 ml Eppendorf tube in ice water. The plasma was then frozen in freezer or on dry ice. The samples were stored at −80° C. prior to analysis. Organs were collected from euthanized mice. The organs (lungs, liver, kidney, spleen and heart) were removed, placed in a tube, and immediately frozen in liquid nitrogen. The tubes were then transferred to dry ice. The samples were saved in cryogenic tissue vials. Samples were analyzed by LC-MS/MS using an ABSCIEX 5500 QTRAP LC-MS/MS system with a Hypercarb (PGC) column.

[2] = 6 day q.d. intraperitoneal toxicology in mice; format: in vivo
Description: Alternatively, drug delivery by aerosol (nasal spray) administration may immediately achieve therapeutic levels of drug in the nasal mucosa and the brain.

CHIK virus = assay: Mouse model of Chikungunya infection; settings: CHIKV challenged mice, 25 or 35 mg/kg i.p.
in vivo = settings: male, SD, rat, po, 50 mg/kg
[3] = rat, in vivo, po, 50 mg/kg
[4] = Rodent pharmacokinetic experiment in mice; format: in vivo, DBA-1J mice; settings: female, DBA-1J, mouse, plasma, after IV dosing, read-out: plasma T1/2 (converted)
CEM cells = assay: Cytotoxicity profile, selectivity index in CEM cells; format: cell-based; settings: CEM cells (low of range)
VEE virus = assay: organism not typed; format: cell-based; settings: Vero

O=c1nc(NO)ccn1[C@@H]1O[C@H](CO)[C@H](O)C1O (stereo partly shown) [EIDD-01931, 1-(3,4-dihydroxy-5-(hydroxymethyl)tetrahydrofuran-2-yl)-4-(hydroxyamino)pyrimidin-2-one]
Bioavailability (versus I.P. delivery) ([1]; PO 30 mg/kg): 65% | Bioavailability (versus I.P. delivery) ([1]; PO 100 and 300 mg/kg): 39-46% | Cmax ([1]; female, DBA-1J, mouse, plasma, PO 30 mg/kg): 3 ng/mL | Cmax ([1]; female, DBA-1J, mouse, plasma, PO 100 mg/kg): 7.7 ng/mL | Cmax ([1]; female, DBA-1J, mouse, plasma, PO 300 mg/kg): 11.7 ng/mL | half-life ([1]; female, DBA-1J, mouse, plasma, after PO dosing, read-out: plasma T1/2): 4.1 to 4.7 h | Tmax ([1]; female, DBA-1J, mouse, plasma, oral gavage, read-out: Tmax after oral dosing): 0.25 to 0.5 h | concentration at 24 hr ([1]; female, DBA-1J, mouse, plasma, oral, 100 mg/kg dose): ~100 nM | concentration at 24 hr ([1]; female, DBA-1J, mouse, plasma, po, 300 mg/kg P.O.): ~400 nM | NOEL (NO Effect Level) ([2]; 6 day q.d. IP injections): 33 mg/kg | body weight effect ([2]; highest dose tested (100 mg/kg) IP q.d., reversed on cessation of dosing): weight loss was observed | CC50 (CHIKV): > 500000 nM | CHIKV RNA copies by PCR (FIG. 8) (CHIK virus; after 7 days): reduction of CHIKV RNA copies | footpad swelling (FIG. 7) (CHIK virus; daily for 7 days): reduction in footpad swelling | bioavailability (in vivo): 28% | tissue distribution (brain, lung, spleen, kidney and liver) [3]: well distributed into all tissues tested | half-life [4]: 2.2 h | selectivity index (CEM cells): 8 | EC50 (VEE virus): 1000 nM
